Earlier results in the PKSmart pharmacokinetics tables (Seal et al. 2025).

Assay: Lombardo, Berellini, Obach 2018, Drug Metab Dispos 46:1466, doi 10.1124/dmd.118.082966
Conditions: human; for MRT / Vd / clearance / half-life: in vivo, iv; for fraction unbound: plasma

SMILES	MRT	Vd	clearance	half-life	fraction unbound
O=c1ccc2ncc(=O)n3c2n1C[C@H]3CN1CCC(NCc2cc3c(cn2)OCCC3)CC1	4.86 h	2.7 L/kg	9.23 mL/min/kg	12.6 h	–
CC(C)(S)C(N)C(=O)O (configuration not stated)	1.97 h	1.26 L/kg	10.7 mL/min/kg	3.04 h	0.12
C[C@H]1O[C@@H](n2cc(F)c(=O)[nH]c2=O)[C@H](O)[C@@H]1O	0.46 h	0.28 L/kg	11 mL/min/kg	0.35 h	–
CN(C)C[C@H](c1ccc(O)cc1)C1(O)CCCCC1	11.8 h	3.5 L/kg	4.9 mL/min/kg	8.4 h	0.7
CCOP(=O)(OCC)C(C)NC(=O)N(CCCl)N=O (configuration not stated)	0.55 h	0.62 L/kg	18.5 mL/min/kg	0.38 h	–
CCCNC(C)C(=O)Nc1ccccc1C (configuration not stated)	2.2 h	3.7 L/kg	29 mL/min/kg	1.8 h	0.72
O=C(O)CCCCON=C(c1cccnc1)c1cccc(C(F)(F)F)c1	6.8 h	0.43 L/kg	1.05 mL/min/kg	7.54 h	0.033
CON=C(C(=O)NC1C(=O)N2C(C(=O)O)=C(CN3C=CN4NC=CC=C34)CS[C@H]12)c1nsc(N)n1 (some centres not stated)	2 h	0.24 L/kg	2.1 mL/min/kg	1.7 h	0.74
O=C1OC2(c3ccc(O)cc3Oc3cc(O)ccc32)c2ccccc21	1.8 h	0.14 L/kg	1.3 mL/min/kg	1.6 h	0.11
Nc1nc(=O)c2c([nH]1)NCC(CNc1ccc(C(=O)NC(CCC(=O)O)C(=O)O)cc1)N2C=O (configuration not stated)	0.8 h	0.25 L/kg	5.8 mL/min/kg	1.3 h	–
CN(C)CCC(c1ccc(Cl)cc1)c1ccccn1 (configuration not stated)	22 h	3.3 L/kg	2.5 mL/min/kg	–	–
C[C@H]1[C@H](C)CC[C@]2(C(=O)O)CC[C@@]3(C)C(=CC[C@@H]4[C@@]5(C)CC[C@H](O)C(C)(C)[C@@H]5CC[C@]43C)[C@H]12	2.34 h	–	3.87 mL/min/kg	4.8 h	–
O=C(/C=C/c1ccccc1)NCCO	1.93 h	0.11 L/kg	0.99 mL/min/kg	1.35 h	–
CCOC(=O)[C@]1(c2ccccc2)CCC=C[C@H]1NC	4.2 h	2.5 L/kg	9.9 mL/min/kg	4.4 h	–
COCC(NC(C)=O)C(=O)NCc1ccccc1 (configuration not stated)	17.2 h	0.58 L/kg	0.57 mL/min/kg	12.3 h	0.85
CC[C@@]1(O)C(=O)OCc2c1cc1n(c2=O)Cc2c-1nc1ccccc1c2CC[Si](C)(C)C	13.3 h	3.26 L/kg	4.2 mL/min/kg	13.2 h	–
CN1CC(C(=O)N[C@]2(C)O[C@@]3(O)[C@@H]4CCCN4C(=O)C(Cc4ccccc4)N3C2=O)C=C2c3cccc4[nH]cc(c34)C[C@H]21 (some centres not stated)	4 h	3.6 L/kg	15 mL/min/kg	2.1 h	0.02
N=C(N)N/N=C1\CCc2c(C(=N)N)cccc21	104 h	20 L/kg	3.2 mL/min/kg	65.4 h	–
CN(C)[C@@H]1C(O)=C(C(N)=O)C(=O)[C@@]2(O)C(O)=C3C(=O)c4c(O)cccc4[C@@](C)(O)[C@H]3[C@H](O)[C@@H]12	12 h	1.7 L/kg	2 mL/min/kg	10 h	0.9
CC[C@]1(O)C[C@@H]2CN(CCc3c([nH]c4ccccc34)[C@@](C(=O)OC)(c3cc4c(cc3OC)N(C)[C@H]3[C@@](O)(C(=O)OC)[C@H](OC(C)=O)[C@]5(CC)C=CCN6CC[C@]43[C@@H]65)C2)C1	150 h	28 L/kg	–	67 h	–
Cn1cc(NC(=O)Nc2cc(C(=O)Nc3cc(C(=O)Nc4ccc5cc(S(=O)(=O)O)cc(S(=O)(=O)O)c5c4)n(C)c3)n(C)c2)cc1C(=O)Nc1cc(C(=O)Nc2ccc3cc(S(=O)(=O)O)cc(S(=O)(=O)O)c3c2)n(C)c1	960 h	0.27 L/kg	0.0047 mL/min/kg	730 h	–
CC(=O)C(C#N)C(=O)Nc1ccc(C(F)(F)F)cc1 (configuration not stated)	367 h	0.16 L/kg	0.007 mL/min/kg	350 h	–
CN1CC[C@]23c4c5ccc(O)c4O[C@H]2[C@@H](O[C@@H]2OC(C(=O)O)[C@@H](O)[C@H](O)[C@H]2O)C=C[C@H]3[C@H]1C5 (some centres not stated)	0.91 h	0.12 L/kg	2.2 mL/min/kg	1.4 h	0.67

SMILES	MRT	Vd	clearance	half-life	fraction unbound
CCCCC(C)(C)[C@@H](O)/C=C\[C@@H]1[C@H](C/C=C/CCCC(=O)O)[C@@H](Cl)C[C@@H]1O	0.2 h	0.16 L/kg	13.2 mL/min/kg	0.8 h	–
N#Cc1ccccc1-c1cc(-c2ccccn2)cn(-c2ccccc2)c1=O	229 h	1.36 L/kg	0.1 mL/min/kg	183 h	0.05
O=C(NCCO[N+](=O)[O-])c1cccnc1	2.7 h	1.4 L/kg	8.9 mL/min/kg	3.6 h	0.76
CN[C@@H]1[C@@H](O)[C@@H](O[C@@H]2[C@@H](O)[C@H](O[C@H]3OC(CNCCO)=CC[C@H]3N)[C@@H](N)C[C@H]2NC(=O)C(O)CCN)OC[C@]1(C)O (some centres not stated)	3.2 h	0.22 L/kg	1.14 mL/min/kg	3.4 h	0.84
C[C@@H](c1cccnc1F)c1c(CCN(C)C)sc2ccccc12	10 h	5.73 L/kg	10.4 mL/min/kg	15 h	–
C[C@@H](N)[C@H]1CC[C@@H](N)[C@@H](O[C@@H]2[C@@H](N)[C@@H](O)[C@@H](O)[C@@H](N(C)C(=O)CN)[C@H]2O)O1	3.3 h	0.27 L/kg	1.37 mL/min/kg	2.9 h	–
CCOC(=O)C1=C(C)NC(C)=C(C(=O)OC)C1c1cccc([N+](=O)[O-])c1 (configuration not stated)	4.1 h	6.1 L/kg	25 mL/min/kg	8.2 h	0.02
NC(=O)C1CC[C@@H]2CN1C(=O)N2OS(=O)(=O)O (some centres not stated)	1.4 h	0.24 L/kg	2.76 mL/min/kg	1.7 h	0.93
CCOc1ccccc1O[C@H](c1ccccc1)[C@H]1CNCCO1	13 h	0.65 L/kg	0.82 mL/min/kg	10 h	–
O=c1[nH]c(=O)n([C@@H]2O[C@H](CO)[C@H](O)[C@H](O)[C@H]2O)cc1F	3.95 h	0.33 L/kg	1.38 mL/min/kg	4.21 h	–
C=C1CC[C@@]2(O)[C@H]3Cc4ccc(O)c5c4[C@@]2(CCN3CC2CC2)[C@H]1O5	–	–	–	–	0.65
CC(C)(O)[C@@H]1CC[C@](C)([C@H]2[C@@H](O)C[C@@]3(C)[C@@H]4C[C@H](O[C@@H]5O[C@H](CO)[C@@H](O)[C@H](O)[C@H]5O)[C@H]5C(C)(C)[C@@H](O[C@@H]6OC[C@@H](O)[C@H](O)[C@H]6O)CC[C@@]56C[C@@]46CC[C@]23C)O1	2.78 h	0.12 L/kg	0.74 mL/min/kg	2.65 h	0.14
COc1ccccc1OC[C@H](O)CN1CCN(CC(=O)Nc2c(C)cccc2C)CC1	2.1 h	1.2 L/kg	9.5 mL/min/kg	1.8 h	0.38
CCOC(=O)N[C@@H]1CC[C@@H]2[C@H](CC3C(=O)O[C@H](C)[C@H]3[C@H]2/C=C/c2ccc(-c3cccc(F)c3)cn2)C1 (some centres not stated)	183 h	3.74 L/kg	0.34 mL/min/kg	149 h	0.01
CCCc1nc(C(C)(C)O)c(C(=O)O)n1Cc1ccc(-c2ccccc2-c2nnn[nH]2)cc1	–	–	0.29 mL/min/kg	10.8 h	–
COC(=O)c1cnc2n1CCc1ccccc1C2=C1CCN(CCc2ccc(OCc3ccc4ccccc4n3)cc2)CC1	7.1 h	6.03 L/kg	14.1 mL/min/kg	10.6 h	0.001
NC(=O)CN1CC(O)CC1=O (configuration not stated)	4.9 h	0.55 L/kg	1.8 mL/min/kg	7.5 h	–
CCN(CC)Cc1cc(Nc2ccnc3cc(Cl)ccc23)ccc1O	1.34 h	17.4 L/kg	217 mL/min/kg	2.1 h	–
NC(CCC(=O)NC(CS(=O)(=O)CCOP(=O)(N(CCCl)CCCl)N(CCCl)CCCl)C(=O)NC(C(=O)O)c1ccccc1)C(=O)O (configuration not stated)	0.27 h	0.46 L/kg	28.5 mL/min/kg	0.28 h	–
O=C1NC(=O)C(c2ccccc2)(c2ccccc2)N1	17.6 h	0.43 L/kg	0.37 mL/min/kg	16.8 h	0.13
COc1cc2c(cc1OC)CN(c1cc(N)c3cc(OC)c(OC)cc3n1)CC2	7.6 h	6.3 L/kg	14 mL/min/kg	5.9 h	–
CC(C)[N+]1(C)[C@@H]2CC[C@H]1CC(OC(=O)C(CO)c1ccccc1)C2 (some centres not stated)	2.7 h	–	–	–	–
CCC(=O)NC[C@@H]1C[C@H]1c1cccc2c1CCO2	0.62 h	0.33 L/kg	9.04 mL/min/kg	0.75 h	–

SMILES	MRT	Vd	clearance	half-life	fraction unbound
CC(=O)NC[C@H]1CN(c2ccc(N3CCOCC3)c(F)c2)C(=O)O1	5.4 h	0.58 L/kg	1.8 mL/min/kg	4.5 h	–
NC(Cc1ccc(N(CCCl)CCCl)cc1)C(=O)O (configuration not stated)	–	–	–	–	0.14
CC(=O)O[C@H]1C[C@@]2(C)[C@@H](C[C@@H](O)[C@H]3[C@]4(C)CC[C@@H](O)[C@@H](C)[C@@H]4CC[C@]32C)/C1=C(/CCC=C(C)C)C(=O)O	10.6 h	0.23 L/kg	0.35 mL/min/kg	9.8 h	0.02
N#CN	0.8 h	0.78 L/kg	17 mL/min/kg	0.43 h	–
CC(=O)NCCCS(=O)(=O)O	1.54 h	0.3 L/kg	3.75 mL/min/kg	3.2 h	1
CCN(CC)CCCC(C)Nc1c2ccc(Cl)cc2nc2ccc(OC)cc12 (configuration not stated)	150 h	45 L/kg	5.1 mL/min/kg	120 h	–
COc1ccc2c(c1)[C@@H]1C[C@]1(C(=O)N1[C@@H]3CC[C@H]1CN(C)C3)Cn1c-2c(C2CCCCC2)c2ccc(C(=O)NS(=O)(=O)N(C)C)cc21	6.38 h	0.5 L/kg	1.33 mL/min/kg	5.38 h	0.01
N=C(N)c1ccc(OCCCCCOc2ccc(C(=N)N)cc2)cc1	12 h	53 L/kg	74 mL/min/kg	25 h	0.09
C=C1CC[C@@H]2[C@](C)(COC(=O)CCC(=O)O)[C@H](OC(=O)CCC(=O)O)CC[C@@]2(C)[C@@H]1/C=C/C1=CCOC1=O	1 h	0.13 L/kg	2 mL/min/kg	1.9 h	–
CN(C)C(=O)CCS[C@H](SCCC(=O)O)c1cccc(/C=C/c2ccc3ccc(Cl)cc3n2)c1	2.7 h	0.11 L/kg	0.68 mL/min/kg	2.3 h	0.0004
COc1ccccc1OCCNCC(O)COc1cccc2[nH]c3ccccc3c12 (configuration not stated)	2.8 h	1.3 L/kg	7.8 mL/min/kg	2.4 h	–
Cc1ccccc1OCC(O)CNCCOc1ccc(C(N)=O)cc1 (configuration not stated)	4.8 h	4 L/kg	14 mL/min/kg	2.5 h	0.089
O=C(/C=C/c1ccc(O)c(O)c1)O[C@@H]1C[C@](O)(C(=O)O)C[C@@H](OC(=O)/C=C/c2ccc(O)c(O)c2)[C@H]1O	1.05 h	4.82 L/kg	75.8 mL/min/kg	3.17 h	–
CCCCCCCCCC=CCCC(=O)N=CC(=O)N[C@@H]1[C@@H](O)[C@@H](O)[C@@H](Nc2[nH]cnc3ncnc2-3)O[C@H]1[C@@H](O)CO	1.1 h	0.17 L/kg	2.7 mL/min/kg	1.3 h	–
C#C[C@]1(O)C=C[C@H]2[C@@H]3CC=C4CC(=O)CCC4[C@H]3CC[C@@]21CC (some centres not stated)	9.6 h	0.46 L/kg	0.8 mL/min/kg	10 h	0.023
Cc1c(O)ccc2c1OC[C@@H](c1ccc(O)cc1)[C@H]2c1ccc(O)cc1	2.38 h	1.2 L/kg	8.42 mL/min/kg	5.3 h	–
CNCC[C@H](Oc1cccc2ccccc12)c1cccs1	–	–	8.57 mL/min/kg	12 h	0.04
CN(c1nc2ccccc2s1)C1CCN(C[C@@H](O)COc2ccc(F)cc2)CC1	22.6 h	5.5 L/kg	4.05 mL/min/kg	18.9 h	0.014
Cc1ccnc2c1NC(=O)c1cccnc1N2C1CC1	81 h	1.3 L/kg	0.3 mL/min/kg	53 h	–
O=C1CCC(N2C(=O)c3ccccc3C2=O)C(=O)N1 (configuration not stated)	4.3 h	0.95 L/kg	3.4 mL/min/kg	4.7 h	0.4
CN1CC[C@H](c2c(O)cc(O)c3c(=O)cc(-c4ccccc4Cl)oc23)[C@H](O)C1	4 h	1.5 L/kg	6.1 mL/min/kg	5.2 h	0.06
COc1nc(C(Cl)(Cl)Cl)c(Cl)c(OC)c1Cl	5.1 h	9.1 L/kg	29.9 mL/min/kg	3.8 h	–
